# Experimental data published in patent publication US20140121235A1, “Method for Treating S6K-Overexpressing Cancers” (Rush University Medical Center, priority 2012, published 2014).
# “Also recorded” adds a separate entry of the source.
# What was measured:
# [1] = tested on: BT-20 cells; experiment: Western blot of protein phosphorylation in BT-20 cells; type: cell-based
# Method: (A) A77 1726 induces MAP kinase activation in A375 cells cultured in 10% fetal bovine serum. A375 cells were seeded in a 6-well plate overnight and then stimulated with various concentrations of A77 1726 or PLX 4720 (1 μM) for 2 hr. Cells were harvested and analyzed for MAP kinase activation by anti-phospho-ERK1/2 antibody. The membrane was stripped and re-probed with anti-ERK1/2 antibody. (B) Lack of the feedback activation of the MAP and PI-3 kinase pathways in BT-20 cells. BT20 cells seeded in 6-well plates were starved in DMEM medium containing 05% EBS for 2 hr and treated with A77 1726 (0, 50 or 100 μM), Cells were harvested and analyzed for protein phosphorylation by specific antibodies as indicated. Protein loading was monitored by stripping membrane and re-probing with antibodies against non-phosphorylated proteins. (C) Strong feedback activation of the PI-3 kinase pathway and weak feedback activation of the MAP kinase pathway in MCF-7 cells by A77 1726 and rapamycin. […] Cells were harvested and analyzed for protein phosphorylation with the indicated antibodies. […] Cells were harvested and analyzed for protein phosphorylation by specific antibodies as indicated. Protein loading was monitored by stripping membrane and re-probing with antibodies against nonphosphorylated proteins. […]
# [2] = tested on: Raf-1 phosphorylation; experiment: Western blot of Raf-1 phosphorylation in A375 cells; type: cell-based
# Method: (§1) A375 cells seeded in a 6-well plate were starved in DMEM medium containing 0.5% FBS for 2 hr and treated with the indicated concentration of A77 1726 or PLX 4720 (1 μM) for another 2 hr (A) or treated with A77 1726 (100 μM) for the indicated time (B & C). Cells were harvested and analyzed for protein phosphorylation by specific antibodies as indicated. Protein loading was monitored by stripping membrane and re-probing with antibodies against non-phosphorylated proteins. (D) Uridine fails to reverse the effect of A77 1726 on the PI-3 and MAP kinase pathways. A375 cells seeded in a 6-well plate were starved in DMEM medium containing 05% FBS for 2 hr and treated with the indicated concentration of A77 1726 in the absence or presence of uridine (200 μM). Phosphorylated and total proteins were analyzed by Western blot as described above.
# Cells grown in 6-well plates were harvested and lysed in NP-40 lysis buffer (50 mM Tris-HCI (pH 8.0), 150 mM NaCl, 1% NP-40, 5 mM EDTA, 10 μg/ml aprotinin, 10 μg/ml leupeptin, and 1 mM phenylmethylsulfonyl fluoride). After incubation on ice for 30 min, the cell lysates were prepared by spinning down at 4° C., 15,000 rpm for 15 min. […]
# [3] = rheumatoid arthritis patients treated with leflunomide 20 mg/day; cited from earlier work
# [4] = tested on: ERK1/2^T202/Y204 and MEK1/2^S217/S221 phosphorylation; experiment: Western blot of MAP kinase pathway phosphorylation in A375 cells; type: cell-based; conditions: A375 cells starved in 0.5% FBS; A77 1726 or leflunomide at indicated concentrations, 2 hr
# Method: as §1, with “(D) Uridine fails to reverse the effect of A77 1726 on the PI-3 and MAP kinase pathways.” left out
# A375 cells seeded in 6-well plates were starved in DMEM medium containing 0.5% FBS for 2 hr and then pre-treated with vehicle (0.1% dimethyl sulfoxide), LY294002 (10 μM) (A), PPP (1 μM) (B), or the inhibitors of the MAP kinase pathway (PLX4720, 1 μM; U0126, 10 μM; PD98059, 10 μM) (C) for 1 hr. Cells were then treated with A77 1726 (100 μM) or rapamycin (20 nM) as indicated for 2 hr. Cells were harvested and analyzed for protein phosphorylation by specific antibodies as indicated. Protein loading was monitored by stripping membrane and re-probing with antibodies against non-phosphorylated proteins.
# Cells grown in 6-well plates were harvested and lysed in NP-40 lysis buffer (50 mM Tris-HCI (pH 8.0), 150 mM NaCl, 1% NP-40, 5 mM EDTA, 10 μg/ml aprotinin, 10 μg/ml leupeptin, and 1 mM phenylmethylsulfonyl fluoride). After incubation on ice for 30 min, the cell lysates were prepared by spinning down at 4° C., 15,000 rpm for 15 min. After electrophoresis and transfer to Immobolin membrane, proteins of interest were probed with their specific antibodies, followed by horseradish peroxidase-conjugated goat anti-rabbit IgG and SuperSignal Western Pico enhanced chemiluminoscence substrate (Pierce Chemical Co., Rockford, Ill.).
# The PI-3 and MAP kinase pathways play an important role in cell proliferation, differentiation, and cell cycle progress. Multiple genes in these two pathways are frequently mutated and have a commanding role in driving tumorigenesis and tumor cell proliferation (2; 3). […] Here we tested whether A77 1726 affected the activation of MAP and PI-3 kinase pathways. A375 cells grown in 6-well plates were starved in the media containing 0.5% FBS for 2 hr and then treated with the indicated concentration of A77 1726. […] We next explored the effect of A77 1726 in phosphorylation of the molecules in the PI-3 kinase pathway.
structure (smiles),measurement,setting,value
C/C(O)=C(\C#N)C(=O)Nc1ccc(C(F)(F)F)cc1 [A77 1726],effect on ERK phosphorylation,[1],had no effect
same,effect on S6^S235/236 phosphorylation,[1],Inhibition
same,effect on Raf-1 phosphorylation,[2],no increased Raf-1 phosphorylation; also recorded: had no effect
same,plasma concentration of A77 1726,[3],≤ 200 µM
same,effect on ERK1/2 and MEK phosphorylation,[4],rapidly and potently induced; also recorded: strongly induced
